Structures can show the parent of a compound that is named as a salt.
Experiments:
[1] = test system: advanced glycation endproducts (AGE); assay: Inhibitory effect against formation of advanced glycation endproducts (BSA + fructose/glucose, 7 days, fluorescence); type: biochemical
Protocol: Experiments were performed to examine the inhibitory effects of each of the compositions prepared in Example 1 and Example 2 against the formation of advanced glycation endproducts.
Bovine serum albumin (BSA), a protein source, was prepared by mixing into a phosphate buffer solution. As a sugar source, a mixed solution between 0.2 M fructose and 0.2 M glucose was used. Each of the compositions prepared in Example 1 and Example 2, and aminoguanidine (positive control) were respectively added into a mixed solution between BSA and a sugar, and cultured for 7 days. After culturing, the content of the resulting advanced glycation endproducts was analyzed. The amount of the advanced glycation endproducts was calculated based on the Equation 1 below using a Microplate reader (Excitation; 350 nm, Emission; 450 nm) (Table 1). Inhibitory effect of AGE (%)={100−(fluorescence intensity of a sample)−(fluorescence intensity of a blank sample)/(fluorescence intensity of a control)−(fluorescence intensity of a blank control)}×100 [Equation 1]

[2] = test system: vascular endothelial growth factor (VEGF); assay: Immunohistochemical staining: formation of VEGF in retina of db/db mice; type: in vivo; conditions: oral once daily 12 weeks; COPH 25 and 50 mg/kg; MET 350 mg/kg; COPH 50 + MET 350 mg/kg
Source text: VEGF induces neovascularization and increases permeability of blood vessels. Additionally, VEGF also induces the formation of substrate-degradative proteins.

| IC50 ([1]; AGE formation, BSA + 0.2 M fructose/0.2 M glucose, 7 days) | Structure (SMILES) | Inhibitory effect (%) ([1]; Conc. 55.5 μg/mL) | Inhibitory effect (%) ([1]; Conc. 74.8 μg/mL) | Inhibitory effect (%) ([1]; Conc. 92.5 μg/mL) | expression of VEGF within retinal tissue (FIG. 9) [2] |
| --- | --- | --- | --- | --- | --- |
| 76.47 ± 4.81 µg/mL | N=C(N)NN [Aminoguanidine HCl] | 43.92 ± 0.37% | 50.86 ± 2.17% | 54.91 ± 0.75% |  |
|  | CN(C)C(=N)N=C(N)N [MET, metformin] |  |  |  | significantly inhibited the expression of VEGF |

From US9844575B2, “Pharmaceutical composition and functional food comprising natural extracts for preventing or treating diabetic complications or angiodema” (KOREA INSTITUTE OF ORIENTAL MEDICINE, priority 2013, dated 2017)
